What was measured:
[1] = Organ distribution in mice by X-band ESR; conditions: for Blood (% dose) / Brain (% dose): vena caudalis, 7.5 μmol (2.5 μmol for 3-carboxy-PROXYL acetoxymethyl ester)
in vivo = conditions: mouse, iv
mouse brain = type: in vivo; conditions: 2.5 μmol, vena caudalis
Method: . An L band ESR-CT image of the head axial transverse section was measured under the following conditions.
Measuring device: Electron spin resonance spectrometry
"JES-RE31" (manufactured by JEOL Ltd.)
Magnetic field gradient: 0.45 mT/cm
Projection: 18 (every 10°)
Magnetic field modulation: 100 kHz
Time constant: 0.003 second
Measurement temperature: room temperature

in vitro = in vitro ADME; conditions: carboxylesterase, 37° C., mean ± SD, n = 3, read-out: Hydrolysis Rate; for metabolised at 10 s: 10 sec., SD printed on next line: 0.43 (methyl ester), 11.9 (acetoxymethyl ester); for metabolised at 1 min: SD printed on next line: 0.34 (methyl ester), 3.4 (acetoxymethyl ester); for metabolised at 0.05 h: 3 min., 1.1 (acetoxymethyl ester); for metabolised at 0.05 h / metabolised at 5 min: SD: 0.49 (methyl ester); for metabolised at 5 min: 2.2 (acetoxymethyl ester); for metabolised at 10 min: SD printed on next line: 0.08 (methyl ester); for metabolised at 10 min / metabolised at 0.5 h: 0.0 (acetoxymethyl ester); for metabolised at 0.5 h: 30 min., SD printed on next line: 1.51 (methyl ester)
Method: (§1) Changes with time in the hydrolysis rate of 3-carboxy-PROXYL methyl ester and 3-carboxy-PROXYL acetoxymethyl ester by an esterase were examined.
(§2) 200 μl of a 10 mM test sample solution was mixed with 800 μl of 5 micro units of an esterase (carboxy esterase, carboxylic ester hydrolase; EC 3.1.1.1 manufactured by Sigma, catalogue No. E3128). The mixture was incubated at 37° C. for 10 seconds, 1 minute, 3 minutes, 5 minutes, 10 minutes, and 30 minutes, respectively. The mixture was then analyzed by HPLC to calculate the hydrolysis rate from the amount ratio of the unchanged product to 3-carboxy-PROXYL which is a hydrolysate thereof.
(§3) HPLC was performed using a UV-VIS detector (UV-8020), a dual pump (CCPS), a column (ODS-80Ts), and a TSK precolumn (BSA-ODS) all manufactured by Tosoh Corp.
(§4) Mobile phase: 20 mM phosphate buffer solution (pH 2.2)/methanol=60/40

[2] = system: esterase (carboxy esterase, carboxylic ester hydrolase; EC 3.1.1.1); test: in vitro; type: in vitro ADME
Method: as §1, §2, §3, §4

brain to blood ratio (ratio of % dose/g of the brain to % dose/g of the blood) ([1]; after 10 minutes) | Molecule | Blood (% dose) ([1]; 3 min.) | Brain (% dose) ([1]; 3 min.) | Blood (% dose) ([1]; 10 min.) | Brain (% dose) ([1]; 10 min.) | Blood (% dose) ([1]; 30 min.) | Brain (% dose) ([1]; 30 min.) | Kp at 10 min (in vivo) | Kp at 0.5 h (in vivo) | L band ESR-CT: concentration inside the brain (mouse brain) | L band ESR-CT: concentration outside the brain (mouse brain) | metabolised at 10 s (in vitro) [%] | metabolised at 1 min (in vitro) [%] | metabolised at 0.05 h (in vitro) [%] | metabolised at 5 min (in vitro) [%] | metabolised at 10 min (in vitro) [%] | metabolised at 0.5 h (in vitro) [%] | Speed of hydrolysis by esterase compared with methyl ester, in words [2] | Hydrolysis by esterase, in words ([2]; after 10 seconds)
0.84-1.78 | 2-ethyl-2,5,5-trimethyloxazolidinyloxy | 4.52 | 1.63 | 3.69 | 1.64 | 0.81 | 0.52 |  |  |  |  |  |  |  |  |  |  |  | 
 | CC(=O)OCOC(=O)C1CC(C)(C)N([O])C1(C)C (centres unmarked) [3-carboxy-PROXYL acetoxymethyl ester, acetoxymethyl-2,2,5,5-tetramethylpyrrolidinyloxy-3-carboxylate] | 6.28 | 2.26 | 4.41 | 2.77 | 4.21 | 1.98 | 3.14 | 2.88 | still more highly concentrated inside the brain | decreased accumulation outside the brain | 30.1 | 70.8 | 93.9 | 96.7 | 100 | 100 | hydrolyzed by an esterase in a shorter period of time than 3-carboxy-PROXYL methyl ester | slightly hydrolyzed
 | CCOC(=O)C1CC(C)(C)N([O])C1(C)C (centres unmarked) [3-carboxy-PROXYL ethyl ester] | 3.46 | 0.79 | 2.92 | 0.74 | 3.38 | 0.12 | 0.84 to 1.78 |  |  |  |  |  |  |  |  |  |  | 
 | COC(=O)C1CC(C)(C)N([O])C1(C)C (centres unmarked) [3-carboxy-PROXYL methyl ester] | 4.62 | 1.31 | 2.68 | 0.67 | 2.18 | 0.21 | 0.84 to 1.78 |  | highly concentrated inside the brain | concentrated outside the brain | 0.05 | 0.4 | 0.8 | 1.35 | 2.54 | 8.25 |  | 
